In general, melting point refers to the temperature of the solid-liquid transition.

The structures appear in SMILES notation.

`CN1CCN(c2n[nH]c(-c3ccc(I)cc3)c2-c2ccncc2)CC1` showed a melting point of 265 to 266 °C.
In the case of `CCCCCCN(CC(=O)O)CC(=O)O` it was 130 to 131 °C.
`Cc1ccc(Cc2cnc[nH]2)cc1NS(C)(=O)=O` came in with a melting point of 170 °C.
For the molecule `O=C(O)c1cc(-c2ccc3c(c2)CCO3)nn(Cc2ccc(F)cc2)c1=O`, the melting point was 215 to 218 °C.
In the case of `COC(=O)c1cccc(NC(=O)c2ccc(OC)c(Nc3cccc(C(F)(F)F)c3)c2)c1` it was 128 to 129 °C; in that of `CC1=C(O)C(=O)C(C)(C(C)O)O1` (configuration not stated), 112 to 114 °C.
As to `CCCNC(=O)C(C)Cc1ccc2cccc(Cc3ccc(C(=O)O)cc3OC)c2c1` (configuration not stated), the melting point fell in the range of 199 to 200 °C.
In the case of `CCCCc1nc2ccccn2c(=O)c1-c1ccc(Cl)cc1C` it was 105 to 107 °C.
`Cc1oc(-c2ccccc2)nc1COc1ccc(Cn2cc(CCC(=O)O)c(-c3ccc(C(F)(F)F)cc3)n2)cc1` returned a melting point of 149 to 150 °C.
The molecule `CS(=O)(=O)Nc1ccc(NC(=O)CN2CCC(Cc3ccccc3)CC2)cc1` showed a melting point of 102 to 106 °C.
In the case of `CCOCc1nc2c(N)nc(C)cc2n1CCOCc1ccccc1` it was 127 to 128 °C; in that of `CCCNC(=O)CCn1c(CCC)nc2c(N)nc3ccccc3c21`, 157 to 158 °C; in that of `Cc1[nH]c(=O)c(C#N)cc1-c1ccccc1OCCCC(=O)O`, 218 to 220 °C.
Take `COc1ccc(-c2cnc3cc4cn(Cc5ccccc5)nc4cc3n2)cc1F`: the melting point fell in the range of 225 to 227 °C.
`CNC(=O)CCSCc1csc(NC(N)=NCC(F)(F)F)n1` showed a melting point of 152 to 154 °C.
As to `Cc1ccc2c(c1)C(=O)CCC21CCC(=O)NC1=O` (configuration not stated), the melting point was 252 to 254 °C.
In the case of `FC(F)(F)c1ccc(N2CCNCC2)nc1` it was 45 to 47 °C; in that of `COC(=O)OC(Cc1ccc(OCCc2nc(-c3ccccc3)oc2C)cc1)C(N)=O` (configuration not stated), 171 to 174 °C.
`O=C(O)CCc1ccc(CCNC(=S)Cc2ccccc2)cc1` came in with a melting point of 210 to 212 °C.
In the case of `CC(C)(C)OC(=O)Cn1cccc(NC(=O)OCc2ccccc2)c1=O` it was 88 to 90 °C.
In the case of `NNS(=O)(=O)c1cccc2cccnc12` it was 135 to 137 °C; in that of `Nc1ncnc2c1c(-c1ccc(Oc3ccc(F)cc3)cc1)cn2C1CCOC1` (configuration not stated), 198 to 199 °C; in that of `O=C(O)C(=O)CC(=O)c1cccn1Cc1ccc(Br)cc1`, 184 to 185 °C.
`CCC1(NC(=O)CCl)COCOC1` returned a melting point of 89 to 95 °C.
In the case of `Cc1c(CO)cc([N+](=O)[O-])c(Cl)c1[N+](=O)[O-]` it was 158 to 160 °C.
With `NC(=O)c1c(I)cc(I)c(CCC(=O)O)c1I`, the melting point is over 280 °C.
For `Fc1cc(CC2(Cc3ccnc(F)c3)c3cccnc3-c3cccnc32)ccn1`, the melting point was 134 to 135 °C.
In the case of `COC(=O)C1(C(=O)O)CCc2cc(C3CCCCC3)c(Cl)cc21` (configuration not stated), the melting point lay in the range of 139 to 142 °C.
In the case of `O=C1CCN2CCc3ccccc3C2(c2ccc(F)cc2)C1` (configuration not stated) it was 128 to 130 °C.
In the case of `Clc1cc(Cl)c2[nH]c(-c3ccccc3)cc2c1` it was 136 to 138 °C; in that of `CCCC(C)c1nn(-c2ccc(C(F)(F)F)cn2)cc1CCCOc1c(CC(=O)O)cccc1OC` (configuration not stated), 107 to 108 °C; in that of `CCOCCC(=Nc1ccc(Cl)cc1C(F)(F)F)n1ccnc1`, 61 to 62 °C.
The molecule `CC(c1ccc(OCCC2OCCCO2)cc1)(c1ccc(OCCC2OCCCO2)cc1)c1ccc(OCCC2OCCCO2)cc1` returned a melting point of 101 °C.
In the case of `Cc1ccc(NC(=O)c2ccc3c(c2)C(=O)N(c2c(C)cccc2C)C3=O)cc1C` it was 223 to 225 °C; in that of `Nc1c(-c2ccc(Cl)cc2Cl)nnn1Cc1ccc(S(N)(=O)=O)cc1`, 204 to 206 °C; in that of `Cc1[nH]cc(C#N)c1-c1ccc(Cl)cc1C(=O)c1ccccc1Cl`, 206 to 208 °C.
On to `COc1ccc(N2CCCn3c2nc2c(Cl)ccc(C(OC(F)F)C(F)(F)F)c23)c(C)c1` (configuration not stated), for which the melting point fell in the range of 178 to 182 °C.
The molecule `CC(C(=O)NN)c1cn[nH]c1-c1ccc(-c2ccccc2)cc1O` (configuration not stated) gave a melting point of 138 to 141 °C.
In the case of `CCn1c(=O)c2[nH]c(C(C)=Cc3ccccc3)nc2n(CC)c1=O` it was 251 to 252 °C; in that of `O=C1NCCN(c2ccc(Cc3ccc(Cl)cc3)c(Cl)c2)N1`, 157 to 158 °C.
`COC(=O)c1ccc(-c2ccc3cc(OCc4ccccc4)c(C45CC6CC(CC(C6)C4)C5)cc3c2)cc1` had a melting point of 170 to 173 °C.
In the case of `COc1ccc(Cn2c(C)cc3cnnc(Cl)c32)cc1` it was 126 to 128 °C; in that of `O=C(C=C(O)c1cccnc1)C1CCN(CCc2ccccc2)CC1`, 75 to 77 °C.
For `O=C(O)C=CC(=O)Oc1ccc(Nc2ccccc2)cc1`, the melting point fell in the range of 139 to 142 °C.
`CCc1ccc(N/C=C/[N+](=O)[O-])c(C(=O)O)c1` gave a melting point of 190 to 191 °C.
In turn, `O=C(O)CCCCCCCNC(=O)C(CS)Cc1ccccc1` (configuration not stated) came in with a melting point of 81 to 83 °C.
The molecule `COC(=O)c1ccc(Cn2c(=O)c(C)c3sc(C(=O)NCc4ccc(F)cc4)cn3c2=O)cc1OC` gave a melting point of 191 to 193 °C.
On to `NC(CS(=O)(=O)c1ccccc1)=NNC(=O)c1cc2ccccc2o1`, for which the melting point lay in the range of 205 to 220 °C.
In the case of `O=C(O)c1ccc(OC2=C3N=C4CCCCC4=C3C(CCCCc3ccccc3)C=C2)o1` (configuration not stated) it was 120 to 121 °C; in that of `CC1=NN=C(c2ccc([N+](=O)[O-])cc2)c2ccc(Cl)cc2C1`, 227 to 228 °C; in that of `CC(C)CCCC(O)(Cn1cncn1)C(C)(C)C` (configuration not stated), 45 to 48 °C.
In the case of `O=C(CN1C(=O)c2ccccc2C1=O)Nc1ccccc1Cc1ccccc1` it was 232 °C; in that of `CCOC(=O)c1ccc(Nc2c(NCc3ccccc3)cc(C(=O)OCC)cc2S(N)(=O)=O)cc1`, 161 °C; in that of `COC(=O)c1ccc2c(c1C(=O)OC)OCO2`, 57 to 59 °C.
`CC(=O)OC1CC(=O)N(CC(N)=O)C1` (configuration not stated) yielded a melting point of 84 to 86 °C.
On to `COc1cc(C)c(C(=O)c2ccccc2)c(OC)c1OC`, for which the melting point was 88 to 89 °C.
On to `CCCCCCCCCCCC(=O)c1ccc(/C=C/C(=O)OCC)o1`, for which the melting point was in the range of 50 to 51 °C.
In the case of `Cc1cc(C(N)=O)ccc1N=C1SC[C@H](CC(C)C)N1CC(C)C` it was 130 to 131 °C; in that of `Cc1ccc(C(=O)c2cc(C)n(C)c2)cc1`, 117 to 119 °C.
In the case of `CC(C)(C)OC(=O)NC1CCc2ccccc2C(=Cc2ccccc2)C1=O` (configuration not stated) it was 156 to 158 °C; in that of `Cc1ccccc1N1CCN(C2CCc3cc(O)ccc3C2)CC1` (configuration not stated), 177 to 179 °C; in that of `O=C1OCCC1Oc1ccc(Cl)cc1[N+](=O)[O-]` (configuration not stated), 136 to 140 °C.
`OCC1OC(n2c(Cl)nc3c(NCc4ccccc4)ncnc32)C(O)C1O` (configuration not stated) registered a melting point of 90 to 92 °C.
In the case of `CCOC(=O)c1c(Cn2cncn2)nc2cc3c(cc2c1-c1ccc(OC)c(OC)c1)OCCO3` it was 138 to 140 °C; in that of `CCOC(=O)Cn1c(-c2ccc(OC)cc2)nc2cccnc21`, 107 to 108 °C.
In the case of `CCC(c1cnc2c(C)c(NC(=O)c3ccc(-c4ccc(F)cc4)cc3)ccc2c1)N1CCCC1` (configuration not stated) it was 188 to 191 °C; in that of `CCOC1=NS(=O)(=O)c2cc(I)ccc21`, 185 to 190 °C; in that of `Cc1oc(-c2ccccc2)nc1COc1ccc(COc2ccc(Br)cc2CC(=O)O)cc1`, 162 to 163 °C.
In the case of `Cc1cc(NC(=O)C(=O)N(C)C)cc(C)c1S(=O)(=O)C[N+](=O)[O-]` it was 171 to 172 °C; in that of `COC(=O)c1c(C)n(-c2cc(N)c(C)cc2C)cc(Cl)c1=O`, 215 °C; in that of `Cc1cc2ccccc2n1Nc1ccncc1F`, 157 to 158 °C.
With `CC(OC(=O)c1ccccc1)C(N)=O` (configuration not stated), the melting point is 116 to 117 °C.
Consider `CCCCC(=O)c1oc(=O)[nH]c1C`, for which the melting point fell in the range of 92 to 94 °C.
Molecule `CC1(C)CON(Cc2ccc(N)cc2Cl)C1=O` displayed a melting point of 106 to 108 °C.
Turning to `Cc1ccc(C)n1CCNC(=O)Nc1ccc(C(=O)O)cc1`, the melting point lay in the range of 248 to 250 °C.
For `CCc1nc2c(C)cc(C)nc2n1Cc1ccc(-c2ccccc2)c(-c2nc(=O)o[nH]2)c1`, the melting point lay in the range of 149 to 152 °C.
In the case of `Nc1c2c(nc3cnccc13)CCCC2=O` it was 237 to 242 °C; in that of `O=C(O)c1cc(NC(=O)C(CS)Cc2ccccc2)cc(C(F)(F)F)c1` (configuration not stated), 71 to 74 °C; in that of `COC(=O)c1cc(Br)c(C#N)s1`, 102 to 103 °C.
In the case of `CCCCCCCCCCCCCCCCSCc1ccc(N(C)C)cc1` it was 41 to 43 °C.
In the case of `FC(F)(F)c1cccc(N2CCN(Cc3n[nH]c4c(Cl)cccc34)CC2)c1` it was 133 to 134 °C; in that of `CN(C)S(=O)(=O)Nc1cc(C(=O)c2ccccc2)ccc1N`, 147 to 149 °C.
As for `C=CCN(C(C)=O)c1cccc(-c2ccnc3c(C#N)cnn23)c1`, the melting point was 135 to 137 °C.
In the case of `CCCn1c(=O)c(N)nc2ccccc21` it was 191 to 192 °C; in that of `CCOC(=O)Oc1ccc2nc(S)n(C)c(=O)c2c1`, 216 to 220 °C.
In the case of `O=C(O)Cn1cc(C2(O)CCCC2)nn1` it was 124 to 126 °C; in that of `Nc1ccc(Oc2ccc(O)cc2)cc1`, 130 to 134 °C; in that of `CCc1ccc2c(c1)CC(=O)N2c1c(C)cccc1Cl`, 125 to 126 °C.
In the case of `Cc1cc(C)c(S(=O)(=O)NCCS)c(C)c1` it was 73 °C; in that of `CCn1cc(C(=O)O)c(=O)c2cc(F)c(N3CCC(CN)CC3)nc21`, 203 to 206 °C; in that of `O=C1Nc2cc(C(F)(F)F)ccc2S(=O)(=O)c2ccccc21`, 253 to 254 °C.
`NS(=O)(=O)c1ccc(-c2cn(-c3nc(-c4ccc(Cl)cc4)cc(C(F)(F)F)n3)cn2)s1` displayed a melting point of 284 °C.

For the origin of these results see a melting point compilation (Tetko et al.; mined from patent text by program, amines drawn as free bases though some values may be those of a salt).
